Data reported in patent US9849174B2, “Methods and compositions related to immunogenic fibrils” (The Board of Regents of the University of Texas System, priority 2009, dated 2017).
“Also recorded” adds a separate entry of the source. Ends that are not written are not given here.

Legend:
[1] = tested on: KO mice lacking both the αβ and γδ receptors; assay: Immunization of T cell receptor KO mice, antibody production; assay type: in vivo; conditions: over 6 wks
Description: To confirm the necessity of T cells, KO mice lacking both the αβ and γδ receptors for CD4^+ T cells were immunized with OVA-Q11 along with wild type controls. […] The wild type control mice responded as expected. […] To ensure that the KO mice are capable of eliciting immune responses, they were immunized with a T-independent antigen, NP-Ficoll. […] This finding might not be surprising because OVA is a strong MHC class II peptide, containing both B and T cell determinants.

C57BL/6 mice [2] = assay: Long-term serum antibody ELISA after immunization with Q11-linked peptides (Example 2); conditions: boost at wk 4
Protocol: The dose dependence and longevity of the antibody response to OVA-Q11 was further investigated and antibody responses against the malarial peptide epitope (NANP)3 coupled to Q11 were also characterized. Mice were immunized with two different doses of OVA-Q11 (100 nmol and 50 nmol), or 100 nmol of (NANP)3-Q11 and boosted with half the dose at wk 4. Mice were bled on a weekly basis up to wk 6, once at wk 8, and once every four weeks thereafter.
Animals and Immunizations Peptides were dissolved in sterile water (8 mM stock), incubated overnight at 4° C., and diluted in sterile PBS (2 mM working concentration) prior to immunizations. For the malaria peptide, (NANP)3-Q11, the formulations were incubated in PBS overnight to ensure complete fibril formation. […] Female C57BL/6 mice (6-8 weeks old, Taconic Farms, IN) were immunized subcutaneously with two 50 μL injections in the back, with each injection containing 100 nmol of peptide. […]
Determination of Antibody Production ELISA plates (eBioscience) were coated with 20 μg/mL of peptide or 0.5 μg/mL of whole protein in PBS overnight at 4° C. […] The reaction was stopped using 50 μL of 1 M phosphoric acid and 100 μL of the solution was transferred to fresh plates and absorbance values were read at 450 nm. Absorbance values of PBS (no antigen) coated wells were subtracted to account for background. […]

[3] = set-up: species or system mice; conditions: mouse, in vivo
Description: Peptide assemblies (stained brown and indicated by arrows) were found at the cortex of the lymph nodes by wk 1 and continued to persist up to wk 6. […] Although the mechanism of trafficking is unknown, co-staining for macrophages, dendritic cells, or B cells might provide further insights into the uptake and processing of these peptides in vivo.
Immunohistochemistry Freshly dissected skeletal muscle and inguinal lymph nodes were fixed overnight with 4% formaldehyde in phosphate-buffered saline (pH 7.2) and the tissue was processed and embedded in paraffin at the Human Tissue Resource Center (University of Chicago). The paraffin blocks were cut on a microtome (Leica, USA) into 4 μm thick sections and were deparaffinized with xylene and rehydrated with gradient ethanol. The sections were boiled in 10 mM sodium citrate solution (pH 6.0) for 10 min to retrieve the antigens and blocked with 5% BSA in PBS for 1 hr. The sections were then incubated with Horseradish Peroxidase Avidin D (Vector Laboratories, CA) for 3 hrs, and the biotin was visualized using a peroxidase substrate diaminobenzidine kit (Vector Laboratories, CA). The sections were also counterstained with Mayer's hematoxylin solution (Sigma-Aldrich, USA) for 10 mins. The slides were dehydrated with gradient ethanol and xylene and mounted with Permount Mounting Medium (Fisher Scientific, PA). Images were acquired using a Zeiss Axioskop at the Microscopy Core Facility (University of Chicago).

[4] = ranges: high and low values among three batches for each peptide
Protocol: Endotoxin levels of all formulations were tested using a Limulus Amebocyte Lystae (LAL) chromogenic end point assay (Lonza, USA).
To account for batch-to-batch variability three different sets of peptides were synthesized for immunizing mice.

C57BL/6 mice [5] = assay: Subcutaneous immunization with OVA-KFE8 enantiomers, antibody responses by ELISA (Example 4); assay type: in vivo; conditions: plates coated with free OVA peptide
OT-II cells = assay: In vitro activation assay of OT-II lymphocytes on nanofiber-coated wells, cytokines by flow cytometry; assay type: cell-based, mice; conditions: 6 h stimulation
Description: OVA-KFE8D Nanofibers Induce Robust CD4 T Helper Cell Responses. OVA (ISQAVHAAHAEINEAGR) (SEQ ID NO: 26), is a well-characterized CD4+ T helper epitope, a portion of which is also recognized by B cells (ISQAVHAAHA) (SEQ ID NO: 58) (Robertson, et al., 2000). Therefore, immunization with OVA leads to both CD4+ T cell activation and antibody production and studies have shown that antibody responses against OVA are CD4+ T celldependent (Rudra, et al., 2012; Robertson, et al., 2000). To assess whether the enantiomeric nature of nanofibers that contributed to enhanced antibody responses also leads to differential CD4+ T helper cell functionality, we utilized transgenic mice (OT-II mice) that have CD4+ T cells (OT-II cells) whose receptors recognize OVA in the context of MHC-class II molecules.30 CD4+ T cell responses were assessed using an in vitro activation assay. Whole lymphocyte extracts (containing antigen-presenting cell, B cell, and CD4+ T cell populations) from OT-II mice were cultured in wells coated with OVA-bearing enantiomers, and 6 h later the production of cytokines IFN-γ and IL-2 were measured using flow cytometry. Lymphocytes stimulated with PBS or free OVA peptide were used as negative and positive controls, respectively.

CFSE-labeled OT-II cells = assay: Footpad adoptive transfer of CFSE-labeled OT-II cells one week after immunization; assay type: in vivo, mice; conditions: cells transferred a week after footpad immunization, lymph nodes 24 h later
Description: OVA-KFE8D Nanofibers Prolong Antigen Presentation at the Immunization Site. Previous studies from our lab have shown that peptide nanofiber vaccines (all L-amino acids) are cleared from the immunization site as early as 10 days after vaccination compared to depot forming adjuvants (Chesson, et al., 2014). To investigate whether the reduced proteolytic susceptibility of D-amino acid peptides prolongs antigen-presentation at the immunization site, we used adoptive transfer experiments where mice were injected at the immunization site with CFSElabeled OT-II cells (OVA-specific CD4+ T cells) and measured proliferation of the OT-II cells (in response to existing antigen) via the dilution of the CFSE label using flow cytometry. For these studies, immunizations and adoptive transfers were done in the footpads to maximize antigen depot-OT-II CD4+ T cell interaction and easy collection of draining lymph nodes. Mice were immunized with OVA-KFE8L or OVA-KFE8D nanofibers and a week later CFSE-labeled OT-II cells were transferred at the vaccination site. Twenty-four hours later, mice were sacrificed and draining lymph nodes were extracted.

rat myocardium = conditions: in vivo; cited from earlier work
mouse myocardium = conditions: in vivo; cited from earlier work
[6] = target: T1, streptavidin-conjugated gold particles (Streptomyces avidinii, UniProt P22629); assay: Streptavidin-gold labelling of fibrils imaged by TEM; assay type: binding; conditions: 5 nm streptavidin-conjugated gold
T1 construct: purchased Sigma
T1 sequence (P22629 25-183): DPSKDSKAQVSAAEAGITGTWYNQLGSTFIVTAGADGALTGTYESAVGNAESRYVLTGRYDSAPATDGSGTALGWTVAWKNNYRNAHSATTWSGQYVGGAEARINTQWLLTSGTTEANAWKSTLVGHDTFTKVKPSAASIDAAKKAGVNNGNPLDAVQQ
Description: The availability of the OVA epitope on the surface of O-Q11 nanofibers was confirmed by TEM and by ELISA. To label epitopes in TEM samples, an N-terminally biotinylated O-Q11 was synthesized with a single biotin tag directly adjacent to the OVA sequence. This biotinylated peptide produced fibrils that appeared morphologically similar to O-Q11 (FIG. 2D). Five-nanometer streptavidin-conjugated gold particles were then used to probe epitope availability on the fibril surface, with unmodified Q11 serving as a negative control. […] To confirm this finding and to quantify the availability of the entire epitope, ELISA was employed. Plates coated with OVA and O-Q11 peptides were probed with antisera from mice immunized with OVA, either with or without complete Freund's adjuvant (CFA).
Transmission Electron Microscopy. Peptides were dissolved in deionized water and mixed 6:1 with PBS to produce working peptide concentrations of 330 μM. After fibrillizing for 4h, peptides were applied to 400 mesh gold grids with carbon support films, negative-stained with 1% uranyl acetate, and imaged on a Tecnai F30 TEM. For gold staining, prior to negative-staining grids were placed upside-down on a droplet of blocking solution (0.2% acetylated BSA, 0.1% gelatin from cold water fish skin in PBS) for 5 min, then for 2 h on a droplet of 5 nm colloidal gold conjugated to streptavidin (Sigma). […]

C57BL/6 mice [7] = assay: Subcutaneous immunization of mice, serum antibody titers and isotypes by ELISA (Example 1); assay type: in vivo
Protocol: To investigate how fibrillization affected the immunogenicity of OVA, C57BL/6 mice were immunized subcutaneously with the different peptides and boosted with additional peptide at 28 days (see methods). Serum was collected seven days after the boost, and levels of various immunoglobulins were measured.
Immunizations. […] Stock solutions were then diluted in sterile, endotoxin-free PBS to working concentrations. […] CFA-adjuvanted groups received the same volume and total peptide dose, prepared by emulsifying peptide/PBS solutions 1:1 in CFA. […] CFA groups were boosted in incomplete Freund's adjuvant (IFA). Mice receiving mixtures of Q11 and OVA received 100 nmol of each peptide in the first injection and 50 nmol of each in the second. Seven days after the boost, the mice were sacrificed, and sera and spleens were harvested.
Determination of antibody titers. High-binding ELISA plates (eBioscience) were coated with either 20 μg/mL peptide in PBS or PBS alone (for uncoated background subtraction) overnight at 4° C. […] To determine titers for each antiserum, background absorbance values from uncoated wells were subtracted from coated wells, and net absorbances were compared to cutoff values. The cutoff consisted of the mean plus three times the standard deviation of the negative control group (mice receiving OVA without adjuvant) for each corresponding dilution. Any sample dilutions having absorbances above this cutoff value were considered positive readings. The titer was considered as the highest dilution for which it and all lower dilutions had positive readings. If no positive dilutions were present the titer was considered to be 10^2. […] Antibody isotypes were analyzed similarly using a mouse monoclonal antibody kit containing goat anti-mouse IgG1, IgG2a, IgG2b, IgG3, and IgM (Sigma).

CFSE labeled OTII cells = assay: Adoptive transfer of CFSE-labeled OTII T cells and immunization; assay type: in vivo, mice; conditions: 100 nmol s.c., five days after immunization, spleen and lymph nodes
Protocol: Antibody responses to self-assembled peptides are T cell-dependent. […] To determine the requirement for T cells, an adoptive T cell transfer assay was performed. Specifically, mice were injected with CFSE labeled […] cells, which express receptors for the H-2^b restricted OVA epitope. Antigen-mediated proliferation causes a decrease in the CFSE intensity which can be detected by flow cytometry.
Adoptive Transfer of T cells OTII transgenic mice on C57BL/6 background, whose T cells recognize the OVA peptide and carry a marker to distinguish them from naïve T cells from B6 mice (CD90.1 congenic). In vivo CD4+ T cell proliferation was analyzed after adoptive transfer into mice and immunization with the peptides. Briefly, splenocytes and lymph nodes of OTII+ C57BL/6 mice were processed into a single cell suspension and enriched for CD4+ T cells, by negative magnetic separation (Miltenyi Biotec). […] After staining, cells were washed twice with FACS buffer and samples were run on the LSR-II (BD Biosciences, NJ) flow cytometer and analyzed for evidence of proliferation as indicated by dilution of CFSE intensity using. FlowJo cytometry analysis software (Tree Star, OR) was used to analyze and quantify the results. […]

[8] = tested on: primary human endothelial cells; conditions: cited from earlier work
mice = conditions: mouse, in vivo; cited from earlier work

## NANPNANPNANPSGSGQQKFQFQFEQQ [(NANP)3-Q11]
[1]
  Antibody production in T cell receptor KO mice: no antibody production
C57BL/6 mice [2]; 100 nmol
  Spike in antibody levels after the boost: no spike in antibody levels
C57BL/6 mice [2]
  Time for which antibodies were detectable: up to 28 wks

## ISQAVHAAHAEINEAGRSGSGQQKFQFQFEQQ-NH2 (C-terminus assumed) [O-Q11]
[3]
  Localization of peptide assemblies: localized to the draining lymph nodes
  Persistence of peptide assemblies in lymph nodes: ≤ 6 wk
  Time at which peptide assemblies were found at the cortex of the lymph nodes: ≤ 1 wk
[4]
  Endotoxin: 0.08-0.28 EU/mL

## H2N-ISQAVHAAHAEINEAGRSGSGFKFEFKFE-Am (H-ISQAVHAAHAEINEAGRSGSGFKFEFKFE-NH2; not fully specified (some residues)) [OVA-KFE8(L)]
C57BL/6 mice [5]
  Dominant antibody isotype: IgG1
OT-II cells
  IFN-γ production by OT-II cells compared to wells coated with PBS or bare nanofibers: significantly higher levels
  IL-2 production by OT-II cells compared to wells coated with PBS or bare nanofibers: significantly higher levels
CFSE-labeled OT-II cells
  Transferred OT-II cells that had proliferated (shift in CFSE intensity): only background levels of proliferation

## n-RARADADARARADADA-c [RAD16-II]
Rat myocardium
  Tissue responses: Negligible tissue responses
Mouse myocardium
  Tissue responses: Negligible tissue responses

## Ac-QQKFQFQFEQQ-NH2 [Peptide Q11, Ac-QQKFQFQFEQQ-Am]
[6]
  Binding of streptavidin-gold to fibrils: negligible numbers of particles; also recorded: did not bind streptavidin-gold
C57BL/6 mice [7]; delivered in CFA
  Total IgG response: non-immunogenic even in CFA
C57BL/6 mice [7]; delivered with or without CFA
  Total IgG response: did not raise any detectable IgG
C57BL/6 mice [7]; peptide in PBS without added adjuvant, s.c., boost day 28, serum 7 days after boost
  Total IgG response: did not elicit a response
CFSE labeled OTII cells
  Transferred cells that proliferated (shift in CFSE intensity): negligible shift in CFSE intensity
[4]
  Endotoxin: 0.024-0.098 EU/mL
[8]
  Cell death / cytotoxicity in primary cell cultures: did not induce cell death
mice
  Antibody responses: little to no antibody responses
